Source: patent US7579488B2 (Eli Lilly and Company, priority 2003, dated 2009)
Where “and” joins values, the source holds several entries; their conditions need not be identical. Identical values can stand only once. Like-named read-outs stand apart in the source and are kept apart here.

Key:
female DBF mice [1] = settings: in vivo, po
Text: The Mouse Hypercalcemia Assay
(§1) The Mouse Hypercalcemia Assay is a six day hypercalcemia test for toxicity and selectivity.
(§2) (4) Materials and Method for the Mouse Hypercalcemia Assay:
(§3) Weanling, virus-antibody-free, five to six weeks old female DBF mice (Harlan, Indianapolis, Ind.) are used for all the studies. Animals are allowed to acclimate to local vivarium conditions for 2 days. […] The animals then are divided into groups with 4-5 mice per group. Different doses of test compounds prepared in 10% Ethanol and 90% sesame oil are administered to mice orally via gavage for 6 days. 1α-25(OH)2D3 0.5 μg/kg/d was also given to one group of mice as the positive control. […] Raw data of group differences is assessed by analysis of variance (ANOVA) using Fisher's protected least significant difference (PLSD) where the significance level was P<0.05.

RXR-VDR heterodimer = biological target: T1, RXR-VDR heterodimer (Homo sapiens, UniProt P11473); experiment: RXR-VDR heterodimerization assay (SaOS-2 cells); type: cell-based; settings: Gal4-RXR-DEF/VP16-VDR-LBD luciferase reporter, several values in a cell separated by /
T1 construct: Add the Gal4-RXR-DEF and VP16-VDR-LBD; expressed in transfected cells; host or cells: SaOS-2 cells
T1 sequence (P11473 127-423 limits assumed): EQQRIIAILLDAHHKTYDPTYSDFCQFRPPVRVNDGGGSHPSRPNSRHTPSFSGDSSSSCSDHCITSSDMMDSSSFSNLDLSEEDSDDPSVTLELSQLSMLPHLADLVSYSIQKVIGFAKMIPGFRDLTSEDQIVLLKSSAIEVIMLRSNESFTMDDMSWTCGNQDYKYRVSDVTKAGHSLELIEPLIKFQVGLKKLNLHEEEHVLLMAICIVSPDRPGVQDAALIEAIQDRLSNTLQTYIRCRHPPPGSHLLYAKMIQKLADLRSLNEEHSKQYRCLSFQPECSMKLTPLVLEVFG
T1 sequence (P19793 201-462 partner limits assumed): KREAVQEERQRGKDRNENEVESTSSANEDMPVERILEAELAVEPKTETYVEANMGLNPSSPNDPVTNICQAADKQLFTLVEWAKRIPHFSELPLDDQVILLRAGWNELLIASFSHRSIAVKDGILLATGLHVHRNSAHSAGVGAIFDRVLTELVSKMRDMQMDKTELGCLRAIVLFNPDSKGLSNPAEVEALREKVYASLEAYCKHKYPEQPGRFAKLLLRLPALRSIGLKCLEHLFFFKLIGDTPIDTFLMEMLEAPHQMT

VDR = biological target: T2, VDR (Homo sapiens, UniProt P11473); experiment: VDR CTF (Caco-2 cell co-transfection) assay; type: cell-based; settings: Caco-2 cells, pGal4-VDR-LBD co-transfection, luciferase; several values separated by /
T2 construct: the receptor expression vector pGal4-VDR-LBD (10 ng); expressed in transfected cells; host or cells: Caco-2 cells
T2 sequence (P11473 127-423 limits assumed): T1 sequence (P11473 127-423 limits assumed)
Method: 2. The Caco-2 Cell Co-Transfection Assay:
The Caco-2 cell assay is an indicator for the undesirable condition of hypercalcemia. This co-transfection assay is a surrogate assay for in vivo calcemic activity of VDR ligands. […] Preferred assay results are greater than 1000 nM.
(2) Materials and Method for the Caco-2 Cell Assay:
Caco-2 cells, grown in phenol red free, DMEM (Invitrogen, Carlsbad, Calif.) containing 10% charcoal-stripped FCS (Hyclone, Logan, Utah), were transfected with Fugene 6 reagent (Roche Diagnostics, Indianapolis, Ind.). Cells (5000/well) were plated 18 h before transfection in a 96 well plate. The Cells were transfected with Gal4-responsive reporter pFRLuc (150 ng, Stratagene, La Jolla Calif.) and the receptor expression vector pGal4-VDR-LBD (10 ng), along with Fugene 6 reagent (0.2 μl/well). The DNA-Fugene complex was formed by incubating the mixture for 30 min at room temperature. The cells were transfected in triplicate for 5 h, and treated with various concentrations of VDR ligands (form 0.01 nM to 10,000 nM concentration range) 18 h post-transfection. The luciferase activity was quantified using Steady-Glo reagent kit (Promega, Madison, Wis.) as per manufacturer's specifications.

rat osteocalcin promoter = experiment: OCN (osteocalcin) promoter assay; type: cell-based; settings: Rattus norvegicus, 48 h, RG-15 (ROS 17/2.8) cells, 48 hr treatment, luciferase; several values separated by /
In short: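 Rat osteoblast-like RG-15 (ROS 17/2.8) cells stably carrying a luciferase reporter driven by the osteocalcin promoter, treated with compounds in DMSO (0.01% v/v final) in medium with 2% FBS. After 48 hr at 37 °C, cells were lysed and luciferase activity measured.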

KERtr cells = experiment: Keratinocyte proliferation assay; type: cell-based; settings: Homo sapiens, 72 h, BrdU incorporation, several values separated by /, read-out: Kera. Prolif. IC50
IL-10 = IL-10 induction assay; type: cell-based; settings: Homo sapiens, PBMC, TPA/PHA stimulated human PBMCs, IL-10 in supernatant by immunoassay; several values separated by /
Text: 6. The IL-10 Induction Assay
This is an in vitro efficacy assay for psoriasis, abscess and adhesion. Psoriasis involves both keratinocytes and immune cells. IL-10 is a unique cytokine because it is anti-inflammatory and immunosuppressive. This assay tells us whether a VDRM is able to function as an agonist in PBMCs ([…]) or not.
(6) Materials and Method for Human IL-10 Induction Assay:
Isolation of Peripheral Blood Mononuclear Cells (PBMCs):
B. Prepare sterile tubes with ficol.
C. Add diluted blood to tubes.
E. Discard the top layer and collect the cells from middle layer.
F. Divide all cells into four tubes and add media.
H. Aspirate off media and resuspend.
J. Centrifuge. at 1200 rpm for 10 minutes.
M. Dissolve PHA in water.
N. Plate TPA/PHA treated PBMCs in well plates.
Sample Collection and Assay:
S. Remove all the cells by centrifugation and assay the supernatant for IL-10 by immunoassay.
1) T. Perform […] using anti-human IL-10 antibody coated beads, as described by the manufacturer (Linco Research Inc., St. Charles, Mo.).

female DBF mice [2] = experiment: Mouse hypercalcemia assay; settings: oral gavage for 6 days; serum ionized calcium 6 hours after last dosing
Text: The Mouse Hypercalcemia Assay
as §1, §2, §3

| Mouse Hypercal (female DBF mice [1]) [µg/kg/day] | Structure (SMILES) | EC50 (RXR-VDR heterodimer) | EC50 (VDR) [nM] | EC50 (rat osteocalcin promoter) [nM] | IC50 (KERtr cells) [nM] | IC50 (IL-10) [nM] | Mouse Hypercal (female DBF mice [2]) [µg/kg/day] |
| --- | --- | --- | --- | --- | --- | --- | --- |
| 0.06 | C=C1/C(=C\C=C2/CCC[C@]3(C)[C@@H]([C@H](C)CCCC(C)(C)O)CC[C@@H]23)C[C@@H](O)C[C@@H]1O [AA, 1α,25-dihydroxyvitamin D3] | – | – | – | – | – | – |
| – | CCC(CC)(c1ccc(OCC(=O)C(C)(C)C)c(C)c1)c1ccc2oc(C(=O)NCC(=O)O)cc2c1 [Ex 32, [(5-{1-[4-(3,3-dimethyl-2-oxo-butoxy)-3-methyl-phenyl]-1-ethyl-propyl}-benzofuran-2-carbonyl)-amino]-acetic acid] | 31 nM and 4 nM | 385 | 1 | 10 | 51 | >300 |
